Measurements as given in US10590123B2, “Pesticidally active amide heterocyclic derivatives with sulphur containing substituents” (SYNGENTA PARTICIPATIONS AG, priority 2014, dated 2020).

Assays:
Type in all cases: in vivo
[1] = test system: Plutella xylostella (Diamond Back Moth); assay: Example B3: Activity against Plutella xylostella, artificial diet; settings: 120 h, application rate 200 ppm, L2 larvae, 5 days after infestation, read-out: effect in at least one of the two categories (mortality or growth inhibition)
Protocol: Example B3: Activity Against Plutella xylostella (Diamond Back Moth)
24-well microtiter plates with artificial diet were treated with aqueous test solutions prepared from 10′000 ppm DMSO stock solutions by pipetting. After drying, the plates were infested with L2 larvae (10 to 15 per well). The samples were assessed for mortality and growth inhibition in comparison to untreated samples 5 days after infestation.

[2] = test system: Diabrotica Balteata (Corn Root Worm); assay: Example B4: Activity against Diabrotica balteata, sprayed maize sprouts; settings: 96 h, application rate 200 ppm, L2 larvae, 4 days after infestation, read-out: effect in at least one of the two categories (mortality or growth inhibition)
Protocol: Example B4: Activity Against Diabrotica Balteata (Corn Root Worm)
Maize sprouts, placed on an agar layer in 24-well microtiter plates were treated with aqueous test solutions prepared from 10′000 ppm DMSO stock solutions by spraying. After drying, the plates were infested with L2 larvae (6 to 10 per well). The samples were assessed for mortality and growth inhibition in comparison to untreated samples 4 days after infestation.

[3] = test system: Spodoptera littoralis (Egyptian Cotton Leaf Worm); assay: Example B1: Activity against Spodoptera littoralis, sprayed cotton leaf discs; settings: foliar, 72 h, application rate 200 ppm, L1 larvae, 3 days after infestation, read-out: control in at least one of the three categories (mortality, anti-feedancy or growth inhibition)
Protocol: Example B1: Activity Against Spodoptera littoralis (Egyptian Cotton Leaf Worm)
Cotton leaf discs were placed on agar in 24-well microtiter plates and sprayed with aqueous test solutions prepared from 10′000 ppm DMSO stock solutions. After drying the leaf discs were infested with five L1 larvae. The samples were assessed for mortality, anti-feedant effect, and growth inhibition in comparison to untreated samples 3 days after infestation. Control of Spodoptera littoralis by a test sample is when at least one of mortality, anti-feedant effect, and growth inhibition is higher than the untreated sample.

[4] = test system: Bemisia tabaci (Cotton White Fly); assay: Example B6: Activity against Bemisia tabaci, sprayed cotton leaf discs; settings: foliar, 144 h, application rate 200 ppm, adult white flies, 6 days after incubation
Protocol: Example B6: Activity Against Bemisia tabaci (Cotton White Fly)
Cotton leaf discs were placed on agar in 24-well microtiter plates and sprayed with aqueous test solutions prepared from 10′000 ppm DMSO stock solutions. After drying the leaf discs were infested with adult white flies. The samples were checked for mortality 6 days after incubation.

[5] = test system: Euschistus heros (Neotropical Brown Stink Bug); assay: Example B7: Activity against Euschistus heros, sprayed soybean leaf; settings: 120 h, application rate 200 ppm, N-2 nymphs, 5 days after infestation
Protocol: Example B7: Activity Against Euschistus heros (Neotropical Brown Stink Bug)
Soybean leaf on agar in 24-well microtiter plates were sprayed with aqueous test solutions prepared from 10′000 ppm DMSO stock solutions. After drying the leaf were infested with N-2 nymphs. The samples were assessed for mortality 5 days after infestation.

[6] = test system: Myzus persicae (Green Peach Aphid); assay: Example B8: Activity against Myzus persicae, sprayed sunflower leaf discs; settings: foliar, 144 h, application rate 200 ppm, aphid population of mixed ages, 6 days after infestation
Protocol: Example B8: Activity Against Myzus persicae (Green Peach Aphid)
Sunflower leaf discs were placed on agar in a 24-well microtiter plate and sprayed with aqueous test solutions prepared from 10′000 ppm DMSO stock solutions. After drying, the leaf discs were infested with an aphid population of mixed ages. The samples were assessed for mortality 6 days after infestation.

[7] = test system: Spodoptera littoralis (Egyptian Cotton Leaf Worm); assay: Example B2: Activity against Spodoptera littoralis, systemic via lettuce roots in agar; settings: 144 h, application rate 12.5 ppm, 6 days after infestation, read-out: control in at least one of the three categories (mortality, anti-feedancy or growth inhibition)
From the text: Example B2: Activity Against Spodoptera littoralis (Egyptian Cotton Leaf Worm)
Test compounds were applied by pipette from 10′000 ppm DMSO stock solutions into 24-well plates and mixed with agar. Lettuce seeds were placed on the agar and the multi well plate was closed by another plate which contains also agar. After 7 days the roots have absorbed the compound and the lettuce has grown into the lid plate. The lettuce leafs were now cut off into the lid plate. Spodoptera eggs were pipetted through a plastic stencil on a humid gel blotting paper and the plate closed with it.
The samples were assessed for mortality, anti-feedant effect and growth inhibition in comparison to untreated samples 6 days after infestation.

CCS(=O)(=O)c1cc(-c2ccc(C(F)(F)F)cc2)cnc1C(=O)N(C)c1nnc(C(F)(F)F)s1 [Compound P4]
≥ 80%: percent effect (mortality or growth inhibition) at 200 ppm [1] | percent effect (mortality or growth inhibition) at 200 ppm [2] | percent control (mortality, anti-feedant effect or growth inhibition) at 200 ppm [3] | mortality at 200 ppm [4] | mortality at 200 ppm [5]

CCS(=O)(=O)c1cc(-c2ccc(OC(F)(F)F)cc2)cnc1C(=O)N(C)c1nnc(C(F)(F)F)s1 [Compound P22]
≥ 80%: percent effect (mortality or growth inhibition) at 200 ppm [1] | percent effect (mortality or growth inhibition) at 200 ppm [2] | percent control (mortality, anti-feedant effect or growth inhibition) at 200 ppm [3] | mortality at 200 ppm [6] | mortality at 200 ppm [5]

CCS(=O)(=O)c1cc(-c2cccc(C(F)(F)F)c2)cnc1C(=O)N(C)c1nnc(C(F)(F)F)s1 [Compound P37]
≥ 80%: percent effect (mortality or growth inhibition) at 200 ppm [1] | percent effect (mortality or growth inhibition) at 200 ppm [2] | percent control (mortality, anti-feedant effect or growth inhibition) at 200 ppm [3] | mortality at 200 ppm [4] | mortality at 200 ppm [5]

CCS(=O)(=O)c1cc(-c2ccnc(Cl)c2)cnc1C(=O)N(C)c1nnc(C(F)(F)F)s1 [Compound P57]
≥ 80%: percent effect (mortality or growth inhibition) at 200 ppm [1] | percent effect (mortality or growth inhibition) at 200 ppm [2] | percent control (mortality, anti-feedant effect or growth inhibition) at 200 ppm [3] | mortality at 200 ppm [6] | mortality at 200 ppm [5]

CCS(=O)(=O)c1cc(-c2ccccn2)cnc1C(=O)N(C)c1nnc(C(F)(F)F)s1 [Compound P54]
≥ 80%: percent effect (mortality or growth inhibition) at 200 ppm [1] | percent effect (mortality or growth inhibition) at 200 ppm [2] | percent control (mortality, anti-feedant effect or growth inhibition) at 12.5 ppm [7] | percent control (mortality, anti-feedant effect or growth inhibition) at 200 ppm [3] | mortality at 200 ppm [6] | mortality at 200 ppm [5]

CCS(=O)(=O)c1cc(-c2cccc(OC(F)(F)F)c2)cnc1C(=O)N(C)c1nnc(C(F)(F)F)s1 [Compound P31]
≥ 80%: percent effect (mortality or growth inhibition) at 200 ppm [1] | percent effect (mortality or growth inhibition) at 200 ppm [2] | percent control (mortality, anti-feedant effect or growth inhibition) at 12.5 ppm [7] | percent control (mortality, anti-feedant effect or growth inhibition) at 200 ppm [3] | mortality at 200 ppm [5]

CCS(=O)(=O)c1cc(-c2cc(Cl)ccn2)cnc1C(=O)N(C)c1nnc(C(F)(F)F)s1 [Compound P42]
≥ 80%: percent effect (mortality or growth inhibition) at 200 ppm [1] | percent effect (mortality or growth inhibition) at 200 ppm [2] | percent control (mortality, anti-feedant effect or growth inhibition) at 12.5 ppm [7] | percent control (mortality, anti-feedant effect or growth inhibition) at 200 ppm [3] | mortality at 200 ppm [6] | mortality at 200 ppm [5]

CCSc1cc(-n2ccc(C(F)(F)F)n2)cnc1C(=O)Nc1nnc(C(F)(F)C(F)(F)F)s1 [Compound P6]
≥ 80%: percent control (mortality, anti-feedant effect or growth inhibition) at 12.5 ppm [7]

CCS(=O)(=O)c1cc(-c2cccc(C(F)(F)F)n2)cnc1C(=O)N(C)c1nnc(C(F)(F)F)s1 [Compound P45]
≥ 80%: percent effect (mortality or growth inhibition) at 200 ppm [1] | percent effect (mortality or growth inhibition) at 200 ppm [2] | percent control (mortality, anti-feedant effect or growth inhibition) at 200 ppm [3] | mortality at 200 ppm [6]

CCS(=O)(=O)c1cc(-c2cncs2)cnc1C(=O)N(C)c1nnc(C(F)(F)F)s1 [Compound P40]
≥ 80%: percent effect (mortality or growth inhibition) at 200 ppm [1] | percent effect (mortality or growth inhibition) at 200 ppm [2] | percent control (mortality, anti-feedant effect or growth inhibition) at 200 ppm [3] | mortality at 200 ppm [6] | mortality at 200 ppm [5]

CCS(=O)(=O)c1cc(-c2ccc(C#N)cn2)cnc1C(=O)N(C)c1nnc(C(F)(F)F)s1 [Compound P64, 5-(5-cyano-2-pyridyl)-3-ethylsulfonyl-N-methyl-N-[5-(trifluoromethyl)-1,3,4-thiadiazol-2-yl]pyridine-2-carboxamide]
≥ 80%: percent effect (mortality or growth inhibition) at 200 ppm [1] | percent effect (mortality or growth inhibition) at 200 ppm [2] | percent control (mortality, anti-feedant effect or growth inhibition) at 200 ppm [3] | mortality at 200 ppm [6] | mortality at 200 ppm [5]

CCS(=O)(=O)c1cc(-c2ncc(Cl)cn2)cnc1C(=O)N(C)c1nnc(C(F)(F)F)s1 [Compound P62]
≥ 80%: percent effect (mortality or growth inhibition) at 200 ppm [1] | percent effect (mortality or growth inhibition) at 200 ppm [2] | percent control (mortality, anti-feedant effect or growth inhibition) at 200 ppm [3] | mortality at 200 ppm [6] | mortality at 200 ppm [5]

CCS(=O)(=O)c1cc(-c2ccnc(C(F)(F)F)n2)cnc1C(=O)N(C)c1nnc(C(F)(F)F)s1 [Compound P60]
≥ 80%: percent effect (mortality or growth inhibition) at 200 ppm [1] | percent effect (mortality or growth inhibition) at 200 ppm [2] | percent control (mortality, anti-feedant effect or growth inhibition) at 200 ppm [3] | mortality at 200 ppm [6] | mortality at 200 ppm [5]

CCS(=O)(=O)c1cc(-c2cccc3c2OC(F)(F)O3)cnc1C(=O)N(C)c1nnc(C(F)(F)F)s1 [Compound P29]
≥ 80%: percent effect (mortality or growth inhibition) at 200 ppm [1] | percent effect (mortality or growth inhibition) at 200 ppm [2] | percent control (mortality, anti-feedant effect or growth inhibition) at 12.5 ppm [7] | percent control (mortality, anti-feedant effect or growth inhibition) at 200 ppm [3] | mortality at 200 ppm [6] | mortality at 200 ppm [5]

CCS(=O)(=O)c1cc(-c2ncccn2)cnc1C(=O)N(C)c1nnc(C(F)(F)F)s1 [Compound P43]
≥ 80%: percent effect (mortality or growth inhibition) at 200 ppm [1] | percent effect (mortality or growth inhibition) at 200 ppm [2] | percent control (mortality, anti-feedant effect or growth inhibition) at 12.5 ppm [7] | percent control (mortality, anti-feedant effect or growth inhibition) at 200 ppm [3] | mortality at 200 ppm [6] | mortality at 200 ppm [5]

CCS(=O)(=O)c1cc(-c2cccc(F)c2)cnc1C(=O)N(C)c1nnc(C(F)(F)F)s1 [Compound P26]
≥ 80%: percent effect (mortality or growth inhibition) at 200 ppm [1] | percent effect (mortality or growth inhibition) at 200 ppm [2] | percent control (mortality, anti-feedant effect or growth inhibition) at 12.5 ppm [7] | percent control (mortality, anti-feedant effect or growth inhibition) at 200 ppm [3] | mortality at 200 ppm [6] | mortality at 200 ppm [5]

CCS(=O)(=O)c1cc(C2(C#N)CC2)cnc1C(=O)N(C)c1nnc(C(F)(F)F)s1 [Compound P18]
≥ 80%: percent effect (mortality or growth inhibition) at 200 ppm [1] | percent effect (mortality or growth inhibition) at 200 ppm [2] | percent control (mortality, anti-feedant effect or growth inhibition) at 200 ppm [3] | mortality at 200 ppm [6]

CCS(=O)(=O)c1cc(-c2ncc(C(F)(F)F)cc2F)cnc1C(=O)N(C)c1nnc(C(F)(F)F)s1 [Compound P48]
≥ 80%: percent effect (mortality or growth inhibition) at 200 ppm [1] | percent effect (mortality or growth inhibition) at 200 ppm [2] | percent control (mortality, anti-feedant effect or growth inhibition) at 12.5 ppm [7] | percent control (mortality, anti-feedant effect or growth inhibition) at 200 ppm [3] | mortality at 200 ppm [5]
